Values joined by “and” are separate entries in the source; they are usually repeats but may differ in a detail not shown here. Identical values can stand only once.
Key:
Assay in all cases: drug sensitivity score (DSS), CellTiter-Blue viability (DSS (AUC-based score)); higher = stronger viability inhibition; extreme values may be limits of the assay
Conditions in all cases: incubation time: 72 h
MDA-MB-453 = tested on: MDA-MB-453
Summary of the method: (§1)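 Breast cancer cell lines (20 µl suspension) were seeded into 384-well plates holding compound in a 5- or 9-concentration series, then incubated 72 h. Viability was read with CellTiter-Blue: 2.5 µl reagent was added per well for 2 h at 37 °C, and fluorescence was read at 560/590 nm. Each plate was normalised to 0.1 % DMSO and a positive kill control. The drug sensitivity score was calculated from the area under the fitted dose-response curve.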

HCC1937 = tested on: HCC1937
Summary of the method: as §1

CAL-51 = tested on: CAL-51
Summary of the method: as §1

HDQ-P1 = tested on: HDQ-P1
Summary of the method: as §1

MDA-MB-468 = tested on: MDA-MB-468
Summary of the method: as §1

MDA-MB-231 = tested on: MDA-MB-231
Summary of the method: as §1

CAL-120 = tested on: CAL-120
Summary of the method: as §1

HCC1599 = tested on: HCC1599
Summary of the method: as §1

CAL-148 = tested on: CAL-148
Summary of the method: as §1

CAL-85-1 = tested on: CAL-85-1
Summary of the method: as §1

DU-4475 = tested on: DU-4475
Summary of the method: as §1

Hs578T = tested on: Hs578T
Summary of the method: as §1

BT-549 = tested on: BT-549
Summary of the method: as §1

MDA-MB-436 = tested on: MDA-MB-436
Summary of the method: as §1

MFM-223 = tested on: MFM-223
Summary of the method: as §1

SK-BR-3 = tested on: SK-BR-3
Summary of the method: as §1

Compound | drug sensitivity score (MDA-MB-453) | drug sensitivity score (HCC1937) | drug sensitivity score (CAL-51) | drug sensitivity score (HDQ-P1) | drug sensitivity score (MDA-MB-468) | drug sensitivity score (MDA-MB-231) | drug sensitivity score (CAL-120) | drug sensitivity score (HCC1599) | drug sensitivity score (CAL-148) | drug sensitivity score (CAL-85-1) | drug sensitivity score (DU-4475) | drug sensitivity score (Hs578T) | drug sensitivity score (BT-549) | drug sensitivity score (MDA-MB-436) | drug sensitivity score (MFM-223) | drug sensitivity score (SK-BR-3)
CC[C@@H]1C(=O)OC[C@@H]1Cc1cncn1C [Pilocarpine] | 0.965 | 0 | 0 | 0 | 0 | 0 | 0 | 0 | 0 | 0 | 0 | 0 | 0 | 0 | 0 | 0
CC1(C)CNc2cc(NC(=O)c3cccnc3NCc3ccncc3)ccc21 [Motesanib] | 0 | 0 | 0 | 0 | 0 | 0 | 0 | 0 | 0 | 0 | 0 | 0 | 0 | 0 | 0 | 0
CC1=C2C[C@H]3[C@@H](CC=C4C[C@@H](O)CC[C@@]43C)[C@@H]2CC[C@]12O[C@@H]1C[C@H](C)CN[C@H]1[C@H]2C [Cyclopamine] | 0 | 0 | 0 | 0 | 0 | 0 | 0 | 0 | 0 | 0 | 0 | 0 | 0 | 0 | 0 | 0
Cc1sc2c(c1C)C(c1ccc(Cl)cc1)=N[C@@H](CC(=O)OC(C)(C)C)c1nnc(C)n1-2 [(+)JQ1] | 17.2 | 6.88 | 3.04 | 0 | 5.95 | 12.9 | 11.2 | 7.63 | 9.78 | 10.5 | 17.1 | 11 | 10.7 | 0 | 10.1 | 8.66
Cn1cnc2c(F)c(Nc3ccc(Br)cc3Cl)c(C(=O)NOCCO)cc21 [Selumetinib] | 0 | 2.95 | 0.877 | 4.32 | 0 | 13.7 | 0.649 | 3.63 | 0 | 6.78 | 25.4 | 1.17 | 0 | 0 | 0 | 0
CC(=O)O[C@@]12CO[C@@H]1C[C@H](O)[C@@]1(C)C(=O)[C@H](O)C3=C(C)[C@@H](OC(=O)[C@H](O)[C@@H](NC(=O)OC(C)(C)C)c4ccccc4)C[C@@](O)([C@@H](OC(=O)c4ccccc4)[C@H]21)C3(C)C [Docetaxel] | 24.2 and 24.9 | 27.2 and 24.9 | 22.4 and 25.2 | 17.8 and 22.5 | 19.4 and 20.5 | 24.4 and 25.8 | 24 and 24.9 | 0 | 26.1 and 28.4 | 22.5 and 22.9 | 26.1 and 28.1 | 31.2 and 30.6 | 27.3 and 29.3 | 18.7 and 19.2 | 16.2 and 17.8 | 28.9 and 29.4
O=NN(CCCl)C(=O)NCCCl [Carmustine] | 0 | 0 | 0 | 0 | 0 | 0 | 0 | 0 | 0 | 0 | 0 | 0 | 0 | 0 | 0 | 0
COc1cc(F)c(F)c(Nc2ccc(I)cc2F)c1NS(=O)(=O)C1(C[C@H](O)CO)CC1 [RDEA119] | 5.64 | 5.85 | 6.65 | 11.4 | 4.71 | 18.7 | 7.36 | 0 | 0 | 10.3 | 28.1 | 8.25 | 0 | 0 | 5.52 | 0
Oc1ncnc2[nH]ncc12 [Allopurinol] | 0 | 0 | 0 | 0 | 0 | 0 | 0 | 0 | 0 | 0 | 0 | 0 | 0 | 0 | 0 | 0
